Laboratory results as given in PubChem BioAssay (NCI).
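48-hour exposure; five concentrations; linearly interpolated endpoints. TGI: concentration producing complete growth inhibition.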

How the values were obtained:
Experiment in all cases: NCI anticancer screen, dose series, 48 h
[1] = tested on: HCT-15 colon
[2] = tested on: HT29 colon
[3] = tested on: HCT-116 colon
[4] = tested on: 786-0 renal
[5] = tested on: MALME-3M melanoma
[6] = tested on: UO-31 renal
[7] = tested on: CAKI-1 renal
[8] = tested on: MDA-MB-435
[9] = tested on: UACC-62 melanoma
[10] = tested on: SF-539 CNS

| Compound | TGI [1] | TGI [2] | TGI [3] | TGI [4] | TGI [5] | TGI [6] | TGI [7] | TGI [8] | TGI [9] | TGI [10] |
| --- | --- | --- | --- | --- | --- | --- | --- | --- | --- | --- |
| O=c1[nH]cnc2sc(=S)c3c(c12)CCC3 | 91.4 µM | > 100 µM | > 100 µM | 33.3 µM | 98.2 µM | > 100 µM | 49.4 µM | > 100 µM | > 100 µM | > 100 µM |
| CSc1ncc2c(n1)-c1ccccc1OC2NC(C)(C)C (stereo not given) | > 100 µM | > 100 µM | > 100 µM | > 100 µM | > 100 µM | > 100 µM | > 100 µM | > 100 µM | > 100 µM | > 100 µM |
| Cc1ccc(S(=O)(=O)c2ccc([N+](=O)[O-])o2)cc1 | 2.83 µM | 3.2 µM | 3.94 µM | 3.26 µM | 2.64 µM | 2.78 µM | 1.54 µM | 3.69 µM | 6.17 µM | 3.34 µM |
| O=C(O)c1cc(Cl)cc2c1NC1(N2)C(=O)Nc2ccccc21 (stereo not given) | > 100 µM | > 100 µM | > 100 µM | > 100 µM | > 100 µM | > 100 µM | > 100 µM | > 100 µM | > 100 µM | > 100 µM |
| CSCCCNC(=O)c1csc(-c2csc(CCNC(=O)CNC(=O)CNC(=O)CNC(=O)OC(C)(C)C)n2)n1 | > 100 µM | > 100 µM | > 100 µM | > 100 µM | > 100 µM | > 100 µM | > 100 µM | > 100 µM | > 100 µM | > 100 µM |
| CCn1c2ccc(O)c(C(=O)OC)c2c2cc3ccccc3c(O)c21 | 56 µM | 56.2 µM | 29.2 µM | 30.7 µM | 20.7 µM | > 100 µM | 33.6 µM | 48.3 µM | > 100 µM | 49.2 µM |
| O=c1[nH]c2cc3cccnc3c(Cl)c2nc1CBr | 9.94 µM | 35.9 µM | 25.8 µM | 25.2 µM | 65.5 µM | 23.6 µM | 31.9 µM | 34.8 µM | 25.2 µM | 26.4 µM |
| Nc1ccc(-c2nc3ccc(F)cc3s2)cc1 | > 100 µM | > 100 µM | > 100 µM | > 100 µM | > 100 µM | > 100 µM | 95.5 µM | 70.4 µM | 31.3 µM | > 100 µM |
| Oc1nc(N/N=C/c2ccccc2)[nH]c1/C=C1\C=Nc2ccccc21 | > 100 µM | > 100 µM | > 100 µM | > 100 µM | > 100 µM | > 100 µM | > 100 µM | > 100 µM | > 100 µM | > 100 µM |
| CC1(C)CCCCCCCCCC(C)(CCCCCCCCCCCCO)C1=O (stereo not given) | 55 µM | 31 µM | 31.7 µM | 32.6 µM | 30.6 µM | 32.1 µM | 41.5 µM | 33 µM | 33.7 µM | 32.5 µM |
| CCOP(=O)(OCC)C1(O)CC(n2cc(C)c(=O)[nH]c2=O)OC1CO (stereo not given) | > 100 µM | > 100 µM | > 100 µM | > 100 µM | > 100 µM | > 100 µM | > 100 µM | > 100 µM | > 100 µM | > 100 µM |
| C=C(Br)CNCC(=C)Br | > 100 µM | > 100 µM | > 100 µM | > 100 µM | > 100 µM | > 100 µM | > 100 µM | > 100 µM | > 100 µM | > 100 µM |
| COc1cc(C(c2cccc3ccccc23)N2C(=O)CCC2C(=O)NCc2ccccc2)cc(OC)c1OC (stereo not given) | > 100 µM | > 100 µM | > 100 µM | > 100 µM | > 100 µM | > 100 µM | > 100 µM | > 100 µM | > 100 µM | > 100 µM |
| CC(C)(C)c1cc(C(=O)/C=C/c2ccn[nH]2)cc(C(C)(C)C)c1O | 4.71 µM | 6.59 µM | 6.11 µM | 3.05 µM | 20.2 µM | 3.23 µM | 6.98 µM | 8.34 µM | 8.37 µM | 9.07 µM |
| COc1cc(/C=C2\Cc3cc(OC)c(OC)cc3C2=O)cc(OC)c1 | > 100 µM | > 100 µM | > 52.2 µM | > 56.6 µM | > 100 µM | > 100 µM | > 100 µM | > 100 µM | > 89.4 µM | > 42.7 µM |
| COc1nc(OC)nc(-c2cccc(F)c2)n1 | 29.3 µM | 57.9 µM | 40.5 µM | 63 µM | 31.2 µM | 31.8 µM | 11.4 µM | 31 µM | 22 µM | 32.5 µM |
